Patent US20020058591A1, “Herbicidal compositions” (priority 2000, published 2002)

What was measured:
Assay type in all cases: in vivo
Avena fatua (AVEFA) [1] = assay: Example B.1 post-emergence spray, controlled-environment cabinet, minimal irrigation, visual scoring; conditions: A1 60 g a.i./ha (Genapol LRO 324, sodium lactate 150 g a.i./ha where combined); 14 days after application; 0%=no damage, 100%=all plants dead; 50% rel. humidity
Procedure: (§1) The individual components herbicide, surfactant and humectant with regard to type and application rate as stated in Tables 1-4 were added with stirring to a water application rate of 300 l/ha so that a homogeneous spray mixture was formed. The active substances rimsulfuron and nicosulfuron in the commercially available formulations Cato® WG25 (Du Pont) and Motivell® (BASF) were used for this purpose, respectively. Iodosulfuron-methyl-sodium and mesosulfuron-methyl were added in each case as 20 percent water-dispersible powders. Foramsulfuron was used as 50 percent water-dispersible granules. The surfactants used were Genapol® LRO as 70 percent paste (Clariant) and Synperonic® A7 (Unichema).
(§2) Visual scoring was carried out using a percentage scale of 0%=no damage to 100%=all plants dead.
(§3) Seeds of the harmful plants AVEFA and LOLMU were sown in a sandy loam soil in round pots type 13 in a controlled-environment cabinet and watered slightly. During the entire experiment period, the substrate only received minimal irrigation. A daytime temperature of 18° C. and a nighttime temperature of 16° C. was adhered to, a uniform day length of 16 hours being achieved by additional illumination with sodium vapor lamps (approx. 7000 lux). The relative atmospheric humidity was 50%. […]

[2] = tested on: Lolium multiflorum (LOLMU); assay: as above; conditions: A1 60 g a.i./ha (Genapol LRO 324, sodium lactate 150 g a.i./ha where combined); 14 days after application; 0%=no damage, 100%=all plants dead; 50% rel. humidity
Procedure: as §1, §2, §3

Bromus tectorum (BROTE) = assay: Example B.3 post-emergence spray, pots in the open, minimal irrigation, visual scoring; conditions: A1 10 g a.i./ha (surfactant 300, humectant 300 g a.i./ha where combined), 28 days after application
Procedure: as §1, §2
Seeds of the harmful plant BROTE were sown in a sandy loam soil in round pots type 13 in the open and watered slightly. During the entire experimental period, the substrate only received minimal irrigation. Four weeks after sowing, the plants were treated on a laboratory spray conveyor with spray mixtures of components mesosulfuron-methyl (A1), Genapol® LRO and sodium lactate, A1, Synperonic®A7 and sodium lactate and A1, Genapol® LRO and propylene glycol, the spray mixtures being prepared as in Example A. The water application rate for the spray application of the preparations was 300 l/ha. […]

[3] = tested on: Alopecurus myosuroides (ALOMY); assay: Example B.2 post-emergence spray, greenhouse, visual scoring; conditions: 28 days after application
Procedure: as §1, §2
(§4) Seeds of the harmful plants LOLMU, ALOMY, AVEFA, ECHCG and DIGSA were sown in a sandy loam soil in round pots type 7 in a greenhouse and watered slightly. A daytime temperature of 22 to 24° C. and a nighttime temperature of 16 to 18° C. was adhered to, a uniform day length of 16 hours being achieved by additional illumination with sodium vapor lamps (approx. 7000 lux). The relative atmospheric humidity was 60 to 80%. Two weeks after sowing, the plants were treated on a laboratory spray conveyor with the spray mixtures of rimsulfuron (A2), nicosulfuron (A3), iodosulfuron-methyl sodium (A4) and foramsulfuron (A5) and of combinations of A2, A3, A4 and A5 with Genapol® LRO and sodium lactate, the spray mixtures being prepared as in Example A. The water application rate for the spray application of the preparations was 300 l/ha. After the treatment, the plants were returned to the greenhouse.

Avena fatua (AVEFA) [4] = assay: as above; conditions: 28 days after application
Procedure: as §1, §2, §4

[5] = tested on: Echinochloa crus-galli (ECHCG); assay: as above; conditions: 28 days after application
Procedure: as §1, §2, §4

[6] = tested on: Digitaria adscendens (DIGSA); assay: as above; conditions: 28 days after application
Procedure: as §1, §2, §4

[7] = tested on: Lolium multiflorum (LOLMU); assay: as above; conditions: 28 days after application
Procedure: as §1, §2, §4

Row | SMILES | Action [%] against harmful plants ALOMY ([3]; herbicide 20 g a.i./ha) [%] | Action [%] against harmful plants AVEFA (Avena fatua (AVEFA) [4]; herbicide 20 g a.i./ha) [%] | Action [%] against harmful plants ECHCG ([5]; herbicide 20 g a.i./ha) [%] | Action [%] against harmful plants DIGSA ([6]; herbicide 20 g a.i./ha) [%] | Action [%] against harmful plants LOLMU ([7]; herbicide 20 g a.i./ha) [%] | other results
1 | COC(=O)c1ccc(CNS(C)(=O)=O)cc1S(=O)(=O)NC(=O)Nc1nc(OC)cc(OC)n1 [A1, methyl 2-[3-(4,6-dimethoxypyrimidin-2-yl)ureidosulfonyl]4-methanesulfonamido-methylbenzoate] | – | – | – | – | – | Action [%] against harmful plants AVEFA (Avena fatua (AVEFA) [1]): 10%; Action [%] against harmful plants LOLMU [2]: 10%; Action [%] against harmful plants BROTE (Bromus tectorum (BROTE)): 12.5%
2 | COc1cc(OC)nc(NC(=O)NS(=O)(=O)c2ncccc2C(=O)N(C)C)n1 [A3, 1-(3-N,N-dimethylaminocarbonylpyridin-2-ylsulfonyl)-3-(4,6-dimethoxypyrimidin-2-yl)urea] | 0 | 0 | 0 | – | – | –
3 | CCS(=O)(=O)c1cccnc1S(=O)(=O)NC(=O)Nc1nc(OC)cc(OC)n1 [A2] | – | – | – | – | – | Action [%] against harmful plants ALOMY ([3]; herbicide 5 g a.i./ha): 70%; Action [%] against harmful plants DIGSA ([6]; herbicide 5 g a.i./ha): 30%; Action [%] against harmful plants AVEFA (Avena fatua (AVEFA) [4]; herbicide 5 g a.i./ha): 0%; Action [%] against harmful plants ECHCG ([5]; herbicide 5 g a.i./ha): 10%; Action [%] against harmful plants LOLMU ([7]; herbicide 5 g a.i./ha): 60%
4 | COc1cc(OC)nc(NC(=O)NS(=O)(=O)c2cc(NC=O)ccc2C(=O)N(C)C)n1 [A5, N,N-dimethyl-2-[3-(4,6-dimethoxypyrimidin-2-yl)ureidosulfonyl]4-formylamino-benzamide] | 70 | 60 | 30 | 0 | 50 | –
5 | COC(=O)c1ccc(I)cc1S(=O)(=O)NC(=O)Nc1nc(C)nc(OC)n1 [A4, 3-(4-methoxy-6-methyl-1,3,5-triazin-2-yl)-1-(2-methoxycarbonyl-5-iodophenyl-sulfonyl)urea] | 50 | 60 | 70 | 30 | 60 | –
